The text below walks through data of patent US6514997B2, “Antipicornaviral compounds and compositions, their pharmaceutical uses, and materials for their synthesis” (Agouron Pharmaceuticals, Inc., priority 1999, dated 2003).

Like-named read-outs stand apart in the source and are kept apart here.

Series [1] has as its target T1, Recombinant rhinovirus 3C protease, serotype 14 (Human rhinovirus 14, UniProt P03303).
T1 construct: Recombinant rhinovirus 3C proteases; made in house
Briefly: Inhibition of rhinovirus 3C protease (FRET assay, kobs/[I]), serotype 14. It is filed as biochemical. To be noted: for kinact/KI: pH 7.6, read-out: kobs/[I] (3C protease inhibition activity). The method, then: Inhibition of Rhinovirus 3C Protease:
Stock solutions (50 mM, in DMSO) of various compounds were prepared; dilutions were in the same solvent. Recombinant rhinovirus 3C proteases (see Birch et al., “Purification of recombinant human rhinovirus 14 3C protease expressed in Escherichia coli,” Protein Expr. Pur. (1995), vol. 6(5), 609-618) from serotypes 14, 16, and 2 were prepared by the following standard chromatographic procedures: (1) ion exchange using Q Sepharose Fast Flow from Pharmacia; (2) affinity chromatography using Affi-Gel Blue from Biorad; and (3) sizing using Sephadex G-100 from Pharmacia. Each assay sample contained 2% DMSO, 50 mM tris pH 7.6, 1 mM EDTA, a test compound at the indicated concentration, approximately 1 μM substrate, and 50-100 nM protease. The kobs/I values were obtained from reactions initiated by addition of enzyme rather than substrate. RVP activity was measured in the fluorescence resonance energy transfer assay. The substrate was (N-terminal) DABCYL-([…]-EDANS. In the uncleaved peptide, the EDANS fluorescence was quenched by the proximal DABCYL moiety. When the peptide was cleaved, the quenching was relieved, and activity was measured as an increase in fluorescence signal. The tabulated data in the column designated kobs/[I] were measured from progress curves in enzyme start experiments.

The subject of a further series is HRV-14. As to the kind of experiment: Antirhinoviral H1-HeLa cell culture assay (XTT cell protection, EC50), HRV-14. It is filed as cell-based, human rhinovirus (HRV) serotype-14 in H1-HeLa cells. Here is the method:
(§1) Antirhinoviral H1-HeLa Cell Culture Assay:
(§2) In this cell protection assay, the ability of compounds to protect cells against HRV infection was measured by the XTT dye reduction method, which is described in Weislow et al., J. Natl. Cancer Inst. […] H1-HeLa cells were infected with HRV-14 at a multiplicity of infection (m.o.i.) of 0.13 (virus particles/cell) or mock-infected with medium only. Infected or mock-infected cells were resuspended at 8×10^5 cells per mL, and incubated with appropriate concentrations of the compounds to be tested. Two days later, XTT/PMS was added to test plates and the amount of formazan produced was quantified spectrophotometrically at 450/650 nm. […] The therapeutic index (TI) was calculated by dividing the CC50 value by the EC50 value.
(§3) All strains of human rhinovirus (HRV) for use in this assay were purchased from American Type Culture Collection (ATCC), except for HRV serotype-14 (produced from the infectious cDNA clone constructed by Dr. Robert Rueckert, Institute for Molecular Virology, University of Wisconsin, Madison, Wis.). HRV stocks were propagated and viral assays were performed in H1-HeLa cells (ATCC). Cells were grown in minimal essential medium with 10% fetal bovine serum, available from Life Technologies (Gaithersburg, Md.).
(Tetrazolium dyes change colour on reduction, which living cells bring about.)

For the next series, the system named is H1-HeLa cells. Briefly: Cytotoxicity (CC50) in mock-infected H1-HeLa cells, XTT dye reduction. It is filed as cell-based, human. The method, then:
as §2, §3
(§4) Coxsackievirus types A-21 (CAV-21) and B3 (CVB3) were purchased from American Type Culture Collection (ATCC, Rockville, Md.). Virus stocks were propagated and antiviral assays were performed in H1-HeLa cells (ATCC). Cells were grown in minimal essential medium with 10% fetal bovine serum (Life Technologies, Gaithersburg, Md.). The ability of the compounds of this invention to protect cells against either CAV-21 or CVB3 infection was measured by the XTT dye reduction method. This method is described in Weislow et al., J. Natl. Cancer Inst. […] H1-HeLa cells were infected with CAV-21 or CVB3 at a multiplicity of infection (m.o.i.) of 0.025 or 0.075, respectively, or mock-infected with medium only. H1-HeLa cells were plated at 4×10^4 cells per well in a 96-well plate and incubated with appropriate concentrations of the test compound. One day (CVB3) or two days (CAV-21) later, XTT/PMS was added to test plates and the amount of formazan produced was quantified spectrophotometrically at 450/650 nm. […] The therapeutic index (TI) was calculated by dividing the CC50 by the EC50.

Series [2] relates to strains of human rhinovirus (HRV). Briefly: Antirhinoviral H1-HeLa cell culture assay (XTT cell protection, EC50), other HRV strains. It is filed as cell-based, human rhinovirus in H1-HeLa cells. Conditions: read-out: EC50. Here is the method:
as §1
In this cell protection assay, the ability of compounds to protect cells against HRV infection was measured by the XTT dye reduction method, which is described in Weislow et al., J. Natl. Cancer Inst. (1989), vol. 81, 577-586. H1-HeLa cells were infected with HRV-14 at a multiplicity of infection (m.o.i.) of 0.13 (virus particles/cell) or mock-infected with medium only. Infected or mock-infected cells were resuspended at 8×10^5 cells per mL, and incubated with appropriate concentrations of the compounds to be tested. Two days later, XTT/PMS was added to test plates and the amount of formazan produced was quantified spectrophotometrically at 450/650 nm. […] The therapeutic index (TI) was calculated by dividing the CC50 value by the EC50 value.
as §3

Series [3] can be described thus: Cytotoxicity (CC50) in mock-infected H1-HeLa cells, XTT dye reduction. It is filed as cell-based, human. Conditions: human, H1-HeLa cells, mock-infected; line of HRV-14. The method, then:
as §2, §3, §4

T1 sequence (P03303 1538-1719): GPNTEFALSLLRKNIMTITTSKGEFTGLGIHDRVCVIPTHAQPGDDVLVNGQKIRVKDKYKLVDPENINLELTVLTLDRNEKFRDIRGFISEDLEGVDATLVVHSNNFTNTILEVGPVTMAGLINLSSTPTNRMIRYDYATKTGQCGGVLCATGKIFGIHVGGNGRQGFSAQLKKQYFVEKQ

As to `C#CC[C@@H](C(=O)N[C@H](/C=C/C(=O)OCC(C)(C)C)C[C@@H]1CCNC1=O)n1cccc(NC(=O)c2cc(C)on2)c1=O` (relative stereo) [Compound 32, trans-(2′S,3″″S,4S)-4-(2′-{3″-[(5′″-Methylisoxazole-3′″-carbonyl)amino]-2″-oxo-2″H-pyridin-1″-yl}-pent-4′-ynoylamino)-5-(2″″-oxopyrrolidin-3″″-yl)pent-2-enoic acid 2,2-Dimethylpropyl Ester], the “kobs/[I] (3C protease inhibition activity)” value in series [1] (HRV-14) is 127,500 M^−1s^−1. Further, the EC50 – broadly, the concentration that produces a half-maximal response – with HRV-14 (HRV-14, read-out: EC50) was determined as 0.126 µM; in series [2] (HRV-1A), 0.179 µM; in series [2] (HRV-2), 0.105 µM; in series [2] (HRV-3) it was 0.059 µM; in series [2] (HRV-9), 0.5 µM; in series [2] (HRV-10), 0.156 µM. Also, the half-maximal effective concentration (EC50) was 0.184 µM in series [2] (HRV-16), 0.547 µM in series [2] (HRV-25), 0.41 µM in series [2] (HRV-39) and 0.033 µM in series [2] (HRV-87). In addition, the cytotoxic concentration (CC50) with H1-HeLa cells (line of HRV-1A), in the series with H1-HeLa cells (line of HRV-2), in the series on H1-HeLa cells (line of HRV-3), in the series with H1-HeLa cells (line of HRV-9), with H1-HeLa cells (line of HRV-10) and in the series with H1-HeLa cells (line of HRV-14) was above 10 µM throughout. Moreover, the cytotoxic concentration (CC50) in the series on H1-HeLa cells (line of HRV-16), in the series on H1-HeLa cells (line of HRV-25), in the series with H1-HeLa cells (line of HRV-39) and in the series with H1-HeLa cells (line of HRV-87) was above 10 µM each time.
With `CCC(C(=O)N[C@H](/C=C/C(=O)OCC(C)(C)C)C[C@@H]1CCNC1=O)n1cccc(NC(=O)c2cc(C)on2)c1=O` (relative stereo) [Compound 42, trans-(2′S,3′″″S,4S)-4-[2′-(3″-{[1′″-(5″″-Methylisoxazol-3″″-yl)methanoyl]amino}-2′″-oxo-2′″H-pyridin-1′″-yl)butanoylamino]-5-(2′″″-oxopyrrolidin-3′″″-yl)pent-2-enoic Acid 2,2-Dimethylpropyl Ester], the “kobs/[I] (3C protease inhibition activity)” value in series [1] (HRV-14) is given as 38,200 M^−1s^−1. Further, the EC50 with HRV-14 (HRV-14, read-out: EC50) turned out to be 0.168 µM; in series [2] (HRV-2), 0.161 µM; in series [2] (HRV-3), 0.152 µM; in series [2] (HRV-9), 0.521 µM; in series [2] (HRV-16) it was 0.402 µM; in series [2] (HRV-25) it was 0.611 µM. In addition, in series [2] (HRV-39), the half-maximal effective concentration (EC50) amounted to 0.158 µM. Moreover, the CC50 in the series on H1-HeLa cells (line of HRV-2), in the series on H1-HeLa cells (line of HRV-3), in the series with H1-HeLa cells (line of HRV-9), in the series with H1-HeLa cells (line of HRV-14), with H1-HeLa cells (line of HRV-16) and with H1-HeLa cells (line of HRV-25) was above 10 µM throughout. Moreover, in the series on H1-HeLa cells (line of HRV-39), the CC50 (as a rule, the concentration that lowers cell viability or growth by half) was above 10 µM.
For the compound `CCOC(=O)/C=C/[C@H](C[C@@H]1CCNC1=O)NC(=O)[C@@H](Cc1ccccc1)n1ccc2cc[nH]c2c1=O` [Compound 4], in series [1] (HRV-14), the kinact/KI worked out at 574 M⁻¹ s⁻¹.
As for `CCOC(=O)/C=C/[C@H](CCC(N)=O)NC(=O)[C@H](Cc1ccc(F)cc1)n1cccc(NC(=O)C(F)(F)F)c1=O` [Compound 24, trans-(2′S,4S)-6-Carbamoyl-4-{3′-(4″-fluorophenyl)-2′-[2′″-oxo-3′″-(2″″,2″″,2″″-trifluoroacetylamino)-2′″H-pyridin-1′″-yl]propionylamino}hex-2-enoic Acid Ethyl Ester], the kinact/KI in series [1] (HRV-14) worked out at 8800 M⁻¹ s⁻¹.
Turning to `Cc1cc(C(=O)Nc2ccc3n(c2=O)[C@H](C(=O)N[C@H](/C=C2\CCOC2=O)C[C@@H]2CCNC2=O)CC3)no1` [Compound 38, trans-(2″S,3S,3′″S)-6-[(5′-Methylisoxazole-3′-carbonyl)amino]-5-oxo-1,2,3,5-tetrahydroindolizine-3-carboxylic Acid [2″-(2′″-oxodihydrofuran-3′″-ylidene)-1″-(2″″-oxopyrrolidin-3″″-ylmethyl)ethyl]amide], the EC50 in the series with HRV-14 (Rhinovirus B, HRV14, H1-HeLa, HRV-14, read-out: EC50) came to 16.8 µM. This compound had a half-maximal cytotoxic concentration (CC50) at 2 days in series [3] above 100 µM.
Take `CCOC(=O)/C=C/[C@H](C[C@@H]1CCNC1=O)NC(=O)[C@H](Cc1ccccc1)N1CCc2c(C)c[nH]c2C1=O` [Compound 45, 4S-[2S-(3-Methyl-7-oxo-1,4,5,7-tetrahydro-pyrrolo[2,3-c]pyridin-6-yl)3-phenyl-propionylamino]-5-(2-oxo-pyrrolidin-3-yl)pent-2(trans)-enoic acid ethyl ester]: the kinact/KI in series [1] (HRV-14) came to 673 M⁻¹ s⁻¹.
Turning to `Cc1cc(C(=O)Nc2cccn([C@@H](Cc3ccc(F)c(F)c3)C(=O)N[C@H](/C=C/C(=O)O)C[C@@H]3CCNC3=O)c2=O)no1` [Compound 51, trans-(2′S,3″″″S,4S)-4-[3′-(3″,4″-Difluorophenyl)-2′-(3′″-{[1″″-(5′″″-methylisoxazol-3′″″-yl)methanoyl]amino}-2″″-oxo-2″″H-pyridin-1″″-yl)propanoylamino]-5-(2″″″-oxopyrrolidin-3″″″-yl)pent-2-enoic Acid], the EC50 with HRV-14 (Rhinovirus B, HRV14, H1-HeLa) is above 10 µM; in series [2] (Human rhinovirus sp., HRV9, H1-HeLa, HRV-9), above 1 µM; in series [2] (Human rhinovirus sp., HRV16, H1-HeLa, HRV-16), above 10 µM; in series [2] (Human rhinovirus sp., HRV25, H1-HeLa, HRV-25), above 10 µM. For the same compound, the CC50 in the series on H1-HeLa cells (line of HRV-9), in the series with H1-HeLa cells (line of HRV-16) and with H1-HeLa cells (line of HRV-25) was above 10 µM in each case. In series [3], this compound yielded a CC50 at 2 days above 10 µM.
As to `CC[C@@H](C(=O)N[C@H](/C=C/C(=O)OC1CCCCCC1)C[C@@H]1CCNC1=O)n1cccc(NC(=O)c2cc(C)on2)c1=O` [Compound 61, trans-(2′S,3′″″S,4S)-4-[2′-(3″-{[1′″-(5″″-Methylisoxazol-3″″-yl)methanoyl]amino}-2′″oxo-2′″H-pyridin-1′″-yl)butanoylamino]-5-(2′″″-oxopyrrolidin-3′″″-yl)pent-2-enoic Acid Cycloheptyl Ester], in series [1] (HRV-14 3C protease), the kinact/KI stood at 15000 M⁻¹ s⁻¹.
Turning to `CCOC(=O)/C=C/[C@H](C[C@@H]1CCNC1=O)NC(=O)[C@H](CC)n1cc(C(F)(F)F)cc(NC(=O)c2cc(C)on2)c1=O` [Compound 68, trans-(2′S,3″″S,4S)-4-[2′-({[1″-(5′″-Methylisoxazol-3′″-yl)methanoyl]amino}-oxotrifluoromethyl-2″H-pyridin-1″-yl)butanoylamino]-5-(2″″-oxopyrrolidin-3″″-yl)pent-2-enoic Acid Ethyl Ester], in series [1] (HRV-14 3C protease), the kinact/KI was 39500 M⁻¹ s⁻¹.
As to `Cc1cc(CCCCCCCOc2ccc(C3=NCCO3)cc2)on1` [WIN 51711, reference compound], the EC50 in the series with HRV-14 (HRV-14, read-out: EC50) was 0.78 µM. In the series with H1-HeLa cells (HRV-14), this compound registered a CC50 above 60 µM.
Regarding `Cc1cc(CCCCCCCOc2ccc(C3=N[C@@H](C)CO3)cc2)on1` [WIN 52084, reference compound], the EC50 with HRV-14 (HRV-14, read-out: EC50) came to 0.07 µM. The same compound showed a cytotoxic concentration (CC50) in the series on H1-HeLa cells (HRV-14) above 10 µM.
